Experimental data as given in PubChem BioAssay (NCI).
Where “and” joins values, the source holds several entries; their conditions need not be identical. Equal entries are not always repeated.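 Exposure lasted 48 hours, with cells grown in 96-well plates and compounds tested at five concentrations. The concentration for 50% growth inhibition is given as GI50. TGI: total growth inhibition.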

Key:
Test in all cases: NCI tumour cell line growth inhibition, 48 h
HL-60(TB) leukemia = test system: HL-60(TB) leukemia
A498 renal = test system: A498 renal
BT-549 breast = test system: BT-549 breast
SK-MEL-2 melanoma = test system: SK-MEL-2 melanoma
HT29 colon = test system: HT29 colon
HS 578T breast = test system: HS 578T breast
OVCAR-4 ovarian = test system: OVCAR-4 ovarian
IGROV1 ovarian = test system: IGROV1 ovarian
K-562 leukemia = test system: K-562 leukemia
A549 NSCLC = test system: A549 NSCLC

## COc1ccc(CN(C)c2ccc(CO)c(Cl)c2)cc1
HL-60(TB) leukemia
  GI50: 17.7 µM
  TGI: 64.8 µM
A498 renal
  GI50: 0.0416 µM
  TGI: 0.178 µM
BT-549 breast
  GI50: 19800 nM
  TGI: 73.7 µM
SK-MEL-2 melanoma
  GI50: 8.37 µM
  TGI: 38.7 µM
HT29 colon
  GI50: 5.5 µM
  TGI: > 88.3 µM
HS 578T breast
  GI50: 38.4 µM
  TGI: > 100 µM
OVCAR-4 ovarian
  GI50: 1930 nM
  TGI: > 45.9 µM
IGROV1 ovarian
  GI50: 0.405 µM
  TGI: 3.3 µM
K-562 leukemia
  GI50: 7.59 µM
  TGI: > 100 µM
A549 NSCLC
  GI50: 5.75 µM
  TGI: 55.6 µM

## O=C1c2ccccc2-c2c1c1ccccc1c(=O)n2CCCNCCCn1ccnc1
HL-60(TB) leukemia
  GI50: 0.653 µM
  TGI: 5.01 µM
A498 renal
  GI50: 2.05 µM
  TGI: 7.83 µM
BT-549 breast
  GI50: 1070 nM
  TGI: 7.11 µM
SK-MEL-2 melanoma
  GI50: 2.56 µM
  TGI: 8.17 µM
HT29 colon
  GI50: 1.21 µM
  TGI: > 33.4 µM
HS 578T breast
  GI50: 0.545 µM
  TGI: 5 µM
OVCAR-4 ovarian
  GI50: 6340 nM
  TGI: 28.1 µM
IGROV1 ovarian
  GI50: 0.442 µM
K-562 leukemia
  GI50: 0.529 µM
  TGI: 2.65 µM
A549 NSCLC
  GI50: 1.02 µM
  TGI: 20.1 µM

## COc1cc(OC)c(/C=C/S(=O)(=O)Cc2cnc(OC)c(N)c2)c(OC)c1
HL-60(TB) leukemia
  GI50: < 0.0167 µM
A498 renal
  GI50: < 0.01 µM
  TGI: > 100 µM
BT-549 breast
  GI50: < 25.6 nM
  TGI: > 74.6 µM
SK-MEL-2 melanoma
  GI50: < 0.01 µM
  TGI: > 100 µM
HT29 colon
  GI50: < 0.0185 µM
HS 578T breast
  GI50: < 0.0202 µM
  TGI: > 100 µM
OVCAR-4 ovarian
  GI50: < 45.6 nM
  TGI: > 100 µM
IGROV1 ovarian
  GI50: < 0.0297 µM
  TGI: > 100 µM
K-562 leukemia
  GI50: < 0.013 µM
  TGI: > 100 µM
A549 NSCLC
  GI50: < 0.0263 µM
  TGI: > 100 µM

## CC(C)c1ccc(C(=O)Nc2nc3ccc(O)cc3s2)cc1
HL-60(TB) leukemia
  GI50: 0.481 µM
  TGI: 20.2 µM
A498 renal
  GI50: 2.2 µM
  TGI: 9.91 µM
BT-549 breast
  GI50: 2800 nM
  TGI: > 100 µM
SK-MEL-2 melanoma
  GI50: 18 µM
  TGI: > 100 µM
HT29 colon
  GI50: 3.38 µM
  TGI: 17.8 µM
HS 578T breast
  GI50: 11.4 µM
  TGI: > 100 µM
OVCAR-4 ovarian
  GI50: 873 nM
  TGI: 80.2 µM
IGROV1 ovarian
  GI50: 0.361 µM
  TGI: > 100 µM
K-562 leukemia
  GI50: 0.298 µM
  TGI: 28.6 µM
A549 NSCLC
  GI50: 2.33 µM
  TGI: > 100 µM

## O=c1ccn(C2OC(CO)C(O)C2F)c(=O)[nH]1 (centres undefined)
HL-60(TB) leukemia
  GI50: > 1000 µM
  TGI: > 1000 µM
A498 renal
  GI50: > 1000 µM
  TGI: > 1000 µM
BT-549 breast
  GI50: > 85900 nM
  TGI: > 100 µM
SK-MEL-2 melanoma
  GI50: > 1000 µM
  TGI: > 1000 µM
HT29 colon
  GI50: > 1000 µM
  TGI: > 1000 µM
HS 578T breast
  GI50: > 1000 µM
  TGI: > 1000 µM
OVCAR-4 ovarian
  GI50: 26000 nM
  TGI: 840 µM and > 100 µM
IGROV1 ovarian
  GI50: > 1000 µM
  TGI: > 1000 µM
K-562 leukemia
  GI50: > 1000 µM
  TGI: > 1000 µM
A549 NSCLC
  GI50: > 1000 µM
  TGI: > 1000 µM

## CC12OC(c3ccccc3)=CC(c3ccc(Cl)cc3)=C1C(c1ccccc1)=CC2=O (centres undefined)
HL-60(TB) leukemia
  GI50: 23.2 µM
  TGI: 77.7 µM
A498 renal
  GI50: > 100 µM
  TGI: > 100 µM
BT-549 breast
  GI50: > 100000 nM
  TGI: > 100 µM
SK-MEL-2 melanoma
  GI50: > 100 µM
  TGI: > 100 µM
HT29 colon
  GI50: 27.7 µM
  TGI: > 100 µM
HS 578T breast
  GI50: > 100 µM
  TGI: > 100 µM
OVCAR-4 ovarian
  GI50: 19000 nM
  TGI: > 100 µM
IGROV1 ovarian
  GI50: > 100 µM
  TGI: > 100 µM
K-562 leukemia
  GI50: 28.9 µM
  TGI: > 100 µM
A549 NSCLC
  GI50: 89.1 µM
  TGI: > 100 µM

## Cc1ccccc1NC(=O)N/C(N)=N/c1nc(-c2cccc([N+](=O)[O-])c2)cs1
HL-60(TB) leukemia
  GI50: 3.56 µM
  TGI: > 100 µM
A498 renal
  GI50: 2.39 µM
  TGI: 7.69 µM
BT-549 breast
  GI50: 2160 nM
  TGI: 5.37 µM
SK-MEL-2 melanoma
  GI50: 3.21 µM
  TGI: 17.3 µM
HT29 colon
  GI50: 2.78 µM
  TGI: 64 µM
HS 578T breast
  GI50: 2.17 µM
  TGI: 7.31 µM
OVCAR-4 ovarian
  GI50: 3530 nM
  TGI: > 100 µM
IGROV1 ovarian
  GI50: 1.71 µM
  TGI: 11.5 µM
K-562 leukemia
  GI50: 0.555 µM
  TGI: > 100 µM
A549 NSCLC
  GI50: 2.39 µM
  TGI: 6.98 µM

## COc1cc(C(=O)/C(C)=C/c2c[nH]c3ccccc23)cc(OC)c1OC
HL-60(TB) leukemia
  GI50: 0.00228 µM
  TGI: 0.00652 µM
A498 renal
  GI50: 0.0025 µM
  TGI: 0.00916 µM
BT-549 breast
  GI50: 5.83 nM
SK-MEL-2 melanoma
  GI50: 0.0123 µM
  TGI: 15.2 µM
HT29 colon
  GI50: 0.00402 µM
HS 578T breast
  GI50: 0.00478 µM
  TGI: 48 µM
OVCAR-4 ovarian
  GI50: 24.9 nM
  TGI: > 100 µM
IGROV1 ovarian
  GI50: 0.00566 µM
  TGI: > 100 µM
K-562 leukemia
  GI50: 0.00346 µM
  TGI: > 100 µM
A549 NSCLC
  GI50: 0.0041 µM
  TGI: > 100 µM

## CC(=O)CC(=O)Nc1ccc2ccccc2c1
HL-60(TB) leukemia
  TGI: > 100 µM
A498 renal
  TGI: > 100 µM
BT-549 breast
  TGI: > 100 µM
SK-MEL-2 melanoma
  TGI: > 100 µM
HT29 colon
  TGI: > 100 µM
HS 578T breast
  TGI: > 100 µM
OVCAR-4 ovarian
  TGI: > 100 µM
IGROV1 ovarian
  TGI: > 100 µM
K-562 leukemia
  TGI: > 100 µM
A549 NSCLC
  TGI: > 100 µM

## COC(=O)CCc1cc(OC)c2c(c1)C(C(=O)OC)C(c1ccc(OC)c(OC)c1)O2 (centres undefined)
HL-60(TB) leukemia
  TGI: > 100 µM
A498 renal
  GI50: > 100 µM
  TGI: > 100 µM
BT-549 breast
  TGI: > 100 µM
SK-MEL-2 melanoma
  TGI: > 100 µM
HT29 colon
  TGI: > 100 µM
HS 578T breast
  GI50: > 100 µM and 43.4 µM
  TGI: > 100 µM
OVCAR-4 ovarian
  TGI: > 100 µM
IGROV1 ovarian
  GI50: > 100 µM and 21.5 µM
  TGI: > 100 µM
K-562 leukemia
  TGI: > 100 µM
A549 NSCLC
  GI50: > 100 µM and 38 µM
  TGI: > 100 µM

## CCN1CCN(C(=O)[C@]23CC[C@@H](C)[C@H](C)[C@@H]2C2=CC[C@@H]4[C@@]5(C)C/C(=C/c6ccncc6)C(=O)C(C)(C)[C@@H]5CC[C@@]4(C)[C@]2(C)CC3)CC1
HL-60(TB) leukemia
  GI50: 1.9 µM
  TGI: 4.9 µM
A498 renal
  GI50: 1.49 µM
  TGI: 2.9 µM
BT-549 breast
  GI50: 1780 nM
  TGI: 3.78 µM
SK-MEL-2 melanoma
  GI50: 1.91 µM
  TGI: 3.84 µM
HT29 colon
  GI50: 1.59 µM
  TGI: 4.08 µM
HS 578T breast
  GI50: 1.81 µM
  TGI: 4.3 µM
OVCAR-4 ovarian
  GI50: 1650 nM
  TGI: 3.18 µM
IGROV1 ovarian
  GI50: 1.7 µM
  TGI: 3.36 µM
K-562 leukemia
  GI50: 2.47 µM
  TGI: 7.25 µM
A549 NSCLC
  GI50: 1.78 µM
  TGI: 3.72 µM
